{
  "source": "patent US20140093585A1",
  "about": "“PARP INHIBITORS FOR THE TREATMENT OF CIPN” (AbbVie Inc., priority 2011, published 2014)",
  "key": {"[1]": {"test_system": "vincristine model of chemotherapy-induced pain", "experiment": "Vincristine model of chemotherapy-induced pain: mechanical threshold with von Frey monofilaments", "assay_type": "in vivo, rats", "conditions": "for development of mechanical allodynia (mechanical threshold, von Frey): vincristine 30 ug/kg/day for 12 days; for reversal of mechanical allodynia (von Frey), positive control: rats receiving vincristine, morphine 6 mg/kg i.p. acutely on each day of testing", "experimental": "Rats were administered a PARP Inhibitor, 2-[(2R)-2-methylpyrrolidin-2-yl]-1H-benzimidazole-4-carboxamide (Compound A) or 6-fluoro-2-(2-methylpyrrolidin-2-yl)-1H-benzimidazole-4-carboxamide (Compound B), at doses of 25 mg/kg/day or 50 mg/kg/day (i.p.), for two days prior to the initiation of vincristine. After two days or pre-dosing with the PARP inhibitor, two minipumps were implanted in rats. Vincristine was administered via a subcutaneous mini-osmotic pump that delivered 30 ug/kg/day (i.v) for twelve days. PARP Inhibitor, Compound A or Compound B, or vehicle was administered via a subcutaneous mini-osmotic pump that delivered 25 mg/kg/day, 50 mg/kg/day, or vehicle (i.p.) for twelve days. A positive control group of rats receiving vincristine were dosed acutely with morphine (6 mg/kg, i.p.) on each day of testing. A negative control group of rats received saline. Mechanical threshold was determined for all rats using von Frey monofilaments at 5, 9 and 12 days following initiation of vincristine administration (days 7, 11 and 14 of compound delivery, respectively) for Compound A, and at 3, 6 and 10 days following initiation of vincristine administration (days 5, 8 and 12 of compound delivery, respectively) for Compound B. Mechanical allodynia was observed on all testing days in rats treated with vincristine compared to the naïve group.\nRats were administered a PARP Inhibitor, 2-[(2R)-2-methylpyrrolidin-2-yl]-1H-benzimidazole-4-carboxamide (Compound A), at doses of 25 mg/kg/day or 50 mg/kg/day (i.p., bid) for two days prior to the initiation of vincristine. After two days or pre-dosing with ABT-888, two minipumps were implanted in rats. Vincristine was administered via a subcutaneous mini-osmotic pump that delivered 30 ug/kg/day (i.v) for twelve days. Compound A or vehicle was administered via a subcutaneous mini-osmotic pump that delivered 25 mg/kg/day or 50 mg/kg/day (i.p.) for twelve days. A positive control group of rats receiving vincristine were dosed with acutely morphine (6 mg/kg, i.p.) on each day of testing. A negative control group of rats received saline. Mechanical threshold was determined for all rats using von Frey monofilaments on 5, 9 and 12 days following initiation of vincristine administration (days 7, 11 and 14 of compound delivery, respectively). Mechanical allodynia was observed on all testing days in rats treated with vincristine compared to the naïve group.\nVincristine (i.v, […]) was administered by mini-pump for twelve days. Rats were divided into four groups: Group 1: Vehicle; Group 2: 1-(2-fluoro-5-((4-oxo-3,4,5,6,7,8-hexahydrophthalazin-1-yl)methyl)phenyl)pyrrolidine-2,5-dione (Compound D), 25 mg/kg/day; Group 3: Compound D, 50 mg/kg/day; Group 4: Vehicle+Positive control (morphine). Groups 2 and 3 were pretreated with their respective dose of Compound D (either 25 mg/kg or 50 mg/kg, ip) for two days prior to co-dosing with vincristine. Rats in the positive control group were dosed with vehicle by mini-pump and were acutely administered morphine on day of testing. Mechanical threshold was determined using von Frey monofilaments on days 5, 9, and 12 post-mini-pump implantation. Plasma and brain were collected on day 12. […] Anti-nociceptive efficacy was dose-dependent and observed on days 5, 9, and 12 (FIG. 10)."}, "[2]": {"test_system": "PAR (pADPr)", "experiment": "PAR levels in glabrous hindpaw skin biopsies, ELISA measuring pADPr", "assay_type": "in vivo, rats", "conditions": "Example 4; skin biopsies on day 12 of Example 3; Compound A 25 mg/kg and 50 mg/kg; FIG. 8", "experimental": "Following behavioral testing on day 12 in Example 3, skin biopsies were taken from glabrous hindpaw skin from rats in the naïve, vincristine, and vincristine+Compound A groups (n=5 per group). PAR levels were assessed using ab ELISA assay to measure pADPr as previously described (Liu et al., 2008). PAR levels in skin were increased by vincristine, as compared to the saline group."}, "[3]": {"test_system": "digital nerve SNAP amplitude, cisplatin-treated mice", "experiment": "Nerve conduction study: sensory nerve action potential (SNAP) recording from the digital nerve after cisplatin", "assay_type": "in vivo", "conditions": "Example 5, cisplatin 2.3 mg/kg/day i.p., Compound C 25 or 50 mg/kg/day (i.p., bid), week 3, FIG. 9", "experimental": "Mice were administered a PARP Inhibitor, 2-[(2S)-2-methylpyrrolidin-2-yl]-1H-benzimidazole-4-carboxamide (Compound C), at doses of 25 mg/kg/day or 50 mg/kg/day (i.p., bid), for two days prior to the initiation of cisplatin. After two days or pre-dosing with Compound C, mice were co-dosed with the PARP inhibitor (25 mg/kg/day or 50 mg/kg/day) and cisplatin (2.3 mg/kg/day, i.p.). The dosing regimen consisted for 5 daily co-injections, followed by 5 days off, and then a repeat of 5 daily co-injection. Nerve conduction studies were performed after the final injections in week 3. Sensory nerve action potential (SNAP) recordings were made from the digital nerve. Cisplatin induced a decrease in amplitude in SNAP recording from the digital nerve, an effect that was prevented by 2-[(2S)-2-methylpyrrolidin-2-yl]-1H-benzimidazole-4-carboxamide (Compound C) treatment (FIG. 9)."}, "[4]": {"test_system": "oxaliplatin model", "experiment": "Oxaliplatin model: behavioral assays (von Frey mechanical threshold, paw lifts from cold plate)", "assay_type": "in vivo", "conditions": "mice, oxaliplatin cumulative 30 mg/kg, Compound C 50 mg/kg i.p.", "experimental": "(§1) Mice were administered a PARP Inhibitor, 2-[(2S)-2-methylpyrrolidin-2-yl]-1H-benzimidazole-4-carboxamide (Compound C) at doses of 25 mg/kg/day or 50 mg/kg/day (i.p.) for two days prior to the initiation of cisplatin. The 50 mg/kg dose of Compound C was administered (i.p.) for two days prior to oxaliplatin administration. After two days of pre-dosing with the PARP Inhibitor, mice were co-administered Compound C with cisplatin or oxaliplatin for 5 days (daily injections, i.p.), followed by 5 days off, followed by 5 daily injections (i.p.). Cumulative dose of cisplatin was 23 mg/kg. Cumulative dose of oxaliplatin was 30 mg/kg. Behavioral assays were performed on all groups of mice before dosing, and then at weeks 3, 6, and 8. Behavioral assays including determining mechanical threshold with von Frey monofilaments, determining, latency to paw withdrawal from a radiant heat source, and number of paw lifts from a cold plate."}, "[5]": {"test_system": "cisplatin model", "experiment": "Cisplatin model: behavioral assays (von Frey mechanical threshold, paw withdrawal latency from radiant heat)", "assay_type": "in vivo", "conditions": "mice, cisplatin cumulative 23 mg/kg, Compound C 25 or 50 mg/kg/day i.p.", "experimental": "as §1"}},
  "note": "Entries after “also recorded” stand apart in the source; their conditions may differ.",
  "data": [
    {"smiles": "C[C@]1(c2nc3c(C(N)=O)cccc3[nH]2)CCCN1", "note": "[Compound A, 2-[(2R)-2-methylpyrrolidin-2-yl]-1H-benzimidazole-4-carboxamide]", "values": [
      {"measurement": "development of mechanical allodynia (mechanical threshold, von Frey)", "setting": "[1]; Example 1, rats, Compound A 25 or 50 mg/kg/day i.p., 2 days pre-dosing then mini-pump 12 days, tested 5, 9 and 12 days after vincristine start, FIG. 1", "result": "attenuated development of mechanical allodynia; also recorded: prevention of vincristine-mediated pain"},
      {"measurement": "development of mechanical allodynia (mechanical threshold, von Frey)", "setting": "[1]; Example 3, rats, Compound A 25 or 50 mg/kg/day (i.p., bid pre-dosing 2 days, then mini-pump 12 days), tested days 5, 9 and 12, FIG. 7", "result": "attenuated development of mechanical allodynia; also recorded: prevention of vincristine-mediated pain"},
      {"measurement": "vincristine-mediated PAR activation (PAR levels) in rat glabrous skin", "setting": "[2]", "result": "significantly reduced vincristine-mediated PAR activation; also recorded: prevention of vincristine-mediated increase in PAR levels in skin"}
    ]},
    {"smiles": "CC1(c2nc3c(C(N)=O)cc(F)cc3[nH]2)CCCN1", "note": "(stereo not drawn) [Compound B, 6-fluoro-2-(2-methylpyrrolidin-2-yl)-1H-benzimidazole-4-carboxamide]", "values": [
      {"measurement": "development of mechanical allodynia (mechanical threshold, von Frey)", "setting": "[1]; Example 1, rats, Compound B 25 or 50 mg/kg/day i.p., 2 days pre-dosing then mini-pump 12 days, tested 3, 6 and 10 days after vincristine start, FIG. 2", "result": "attenuated development of mechanical allodynia; also recorded: prevention of vincristine-mediated pain"}
    ]},
    {"smiles": "C[C@@]1(c2nc3c(C(N)=O)cccc3[nH]2)CCCN1", "note": "[Compound C, 2-[(2S)-2-methylpyrrolidin-2-yl]-1H-benzimidazole-4-carboxamide]", "values": [
      {"measurement": "cisplatin-induced decrease in amplitude in SNAP recording from the digital nerve", "setting": "[3]", "result": "prevented; also recorded: prophylactic effect"},
      {"measurement": "development of cold hyperalgesia (number of paw lifts from cold plate)", "setting": "[4]; week 6", "result": "attenuated development of cold hyperalgesia; also recorded: attenuation of oxaliplatin-mediated cold allodynia"},
      {"measurement": "development of mechanical allodynia (von Frey)", "setting": "[4]; weeks 3 and 6", "result": "attenuated development of mechanical allodynia; also recorded: attenuation of oxaliplatin-mediated mechanical allodynia"},
      {"measurement": "development of mechanical allodynia (von Frey)", "setting": "[5]; weeks 3, 6 and 8", "result": "attenuated development of mechanical allodynia; also recorded: attenuation of cisplatin-mediated mechanical allodynia"},
      {"measurement": "development of heat hyperalgesia (latency to paw withdrawal from radiant heat source)", "setting": "[5]; weeks 3 and 6", "result": "attenuated development of heat hyperalgesia; also recorded: attenuation of cisplatin-mediated heat hyperalgesia"}
    ]},
    {"smiles": "O=C1CCC(=O)N1c1cc(Cc2n[nH]c(=O)c3c2CCCC3)ccc1F", "note": "[Compound D, 1-(2-fluoro-5-((4-oxo-3,4,5,6,7,8-hexahydrophthalazin-1-yl)methyl)phenyl)pyrrolidine-2,5-dione]", "values": [
      {"measurement": "vincristine-induced mechanical allodynia (mechanical threshold, von Frey)", "setting": "[1]; Example 6, rats, vincristine i.v. by mini-pump 12 days, Compound D 25 or 50 mg/kg/day, 2 days ip pretreatment, days 5, 9 and 12 post-mini-pump implantation, FIG. 10", "result": "attenuated vincristine-induced mechanical allodynia; also recorded: dose-dependent; also recorded: prevention of vincristine-mediated pain"}
    ]},
    {"smiles": "CN1CC[C@]23c4c5ccc(O)c4O[C@H]2[C@@H](O)C=C[C@H]3[C@H]1C5", "note": "[Morphine, morphine, reference compound]", "values": [
      {"measurement": "reversal of mechanical allodynia (von Frey), positive control", "setting": "[1]; Example 1", "result": "fully reversed mechanical allodynia on all testing days"},
      {"measurement": "reversal of mechanical allodynia (von Frey), positive control", "setting": "[1]; Example 3", "result": "fully reversed mechanical allodynia on all testing days"}
    ]}
  ]
}
